Assay in all cases: GRmax, 72 h; higher = less effect;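 also: breast cell lines in 384-well plates, nine doses across a 10^4 range, Dye Drop imaging of viable cells vs DMSO and time-zero plates, GR 0 means no net growth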
Test [1] deals with HCC1395.
For test [2], the system named is HCC1954.
For test [3], the system named is HCC70.
Test [4] relates to HS578T.
Test [5] deals with MCF7.
Test [6] deals with MDAMB453.
Test [7] relates to SKBR3.
Test [8] has as its system SUM149.
Test [9] has as its system SUM185PE.
In test [10] the test system is SUM44PE.
The test system of test [11] is UACC893.
The test system of test [12] is ZR751.

As for `C[C@@H]1COCCN1c1cc(C2([S@](C)(=N)=O)CC2)nc(-c2cc[nH]c3nccc2-3)n1` [AZD6738] (max 10 µM), the “GRmax, 72 h” value in test [1] is -0.284 GR; in [2], 0.15 GR; in test [3], -0.532 GR; in test [4], 0.0076 GR; in test [5], 0.0472 GR; in test [6], -0.162 GR. The “GRmax, 72 h” value in test [7] is -0.0886 GR; in [8], -0.297 GR; in test [9], 0.687 GR; in [10], -0.206 GR; in test [11] it was 0.429 GR; in test [12], 0.598 GR.
With `CC[C@@]1(O)C(=O)OCc2c1cc1n(c2=O)Cc2cc3c(CN(C)C)c(O)ccc3nc2-1` [Topotecan] (max 10 µM), the “GRmax, 72 h” value in test [1] was -0.584 GR; in test [2] it was -0.401 GR; in test [3], -0.861 GR; in [4], -0.449 GR; in [5] it was -0.271 GR; in [6], -0.529 GR. Also, the “GRmax, 72 h” value in test [7] was -0.271 GR; in test [8], -0.46 GR.
Consider `CCN1CCN(Cc2ccc(Nc3ncc(F)c(-c4cc(F)c5nc(C)n(C(C)C)c5c4)n3)nc2)CC1` (max 10 µM), for which the “GRmax, 72 h” value in test [1] was -0.52 GR; in [2], -0.505 GR; in [3], -0.826 GR; in [4], -0.583 GR; in test [5], -0.268 GR; in [6], -0.765 GR. The “GRmax, 72 h” value was 0.143 GR in test [7]; 0.0962 GR in test [8]; 0.486 GR in test [9]; -0.763 GR in [10]; -0.22 GR in test [11]; 0.311 GR in test [12].
With `Cc1cc(Nc2ncc(Cl)c(Nc3ccccc3S(=O)(=O)C(C)C)n2)c(OC(C)C)cc1C1CCNCC1` [Ceritinib/LDK378] (max 10 µM), the “GRmax, 72 h” value in test [1] was -0.627 GR; in [2] it was -0.445 GR; in test [3], -0.881 GR; in test [4], -0.436 GR; in test [5], -0.616 GR; in [6], -0.687 GR. Besides, the “GRmax, 72 h” value was -0.825 GR in [7]; -0.438 GR in test [8]; 0.412 GR in test [9]; -0.32 GR in test [10]; 0.807 GR in [11]; -0.159 GR in [12].
With `COc1cc2c(Oc3ccc4[nH]c(C)cc4c3F)ncnc2cc1OCCCN1CCCC1` [Cediranib/AZD2171] (max 10 µM), the “GRmax, 72 h” value was -0.482 GR in [1]; -0.32 GR in test [2]; -0.326 GR in test [3]; -0.572 GR in [4]; 0.115 GR in test [5]; -0.689 GR in test [6]. In addition, the “GRmax, 72 h” value in [7] was -0.54 GR; in [8], 0.0682 GR; in [9], 0.0765 GR; in test [10], 0.417 GR; in test [11], -0.458 GR; in test [12], 0.672 GR.
For the compound `CNCc1ccc(-c2[nH]c3cc(F)cc4c3c2CCNC4=O)cc1` [Rucaparib] (max 10 µM), the “GRmax, 72 h” value in [1] was 0.234 GR; in test [2], 0.906 GR; in test [3], 1.06 GR; in test [4], 0.683 GR; in test [5], 0.635 GR; in test [6], 0.18 GR. Moreover, the “GRmax, 72 h” value in test [7] came to 0.757 GR; in test [8], 0.559 GR; in [9] it was 0.772 GR; in test [10], 0.867 GR; in [11] it was 0.502 GR; in test [12], 0.835 GR.
For the compound `NC(=O)Nc1cc(-c2cccc(F)c2)sc1C(=O)N[C@H]1CCCNC1` [AZD7762] (max 10 µM), the “GRmax, 72 h” value is -0.69 GR in test [1]; -0.398 GR in test [2]; -0.7 GR in [3]; -0.598 GR in test [4]; -0.186 GR in test [5]; -0.216 GR in [6]. In addition, the “GRmax, 72 h” value in test [7] is -0.451 GR; in test [8], -0.477 GR; in test [9], 0.115 GR; in [10] it was -0.704 GR; in test [11] it was -0.308 GR; in [12], -0.0705 GR.
For the compound `N.N.[Cl][Pt][Cl]` [Cisplatin] (max 10 µM), the “GRmax, 72 h” value was -0.222 GR in test [1]; -0.0741 GR in test [2]; -0.683 GR in test [3]; 0.0125 GR in test [4]; 0.475 GR in test [5]; 0.133 GR in test [6]. For the same compound, the “GRmax, 72 h” value is 0.249 GR in test [7] and -0.229 GR in test [8].

Source of the values: the supplement of paper PMC9663587.
